Measurements from patent US20220062240A1, “METHODS OF TREATING CANCER USING A CLK INHIBITOR” (BioSplice Therapeutics, Inc., priority 2018, published 2022).
Like-named read-outs stand apart in the source and are kept apart here. One block for each molecule: values may come before it.

Assays:
[1] = system: prostate cancer (5 cell lines); assay: CellTiter-Glo Viability Assay, prostate cancer; type: cell-based; details: Homo sapiens
[2] = system: haematopoietic & lymphoid tumors (13 cell lines); assay: CellTiter-Glo Viability Assay, haematopoietic & lymphoid tumors; type: cell-based; details: Homo sapiens, inhibition of cancer cell proliferation
[3] = system: ovarian cancer (4 cell lines); assay: CellTiter-Glo Viability Assay, ovarian cancer; type: cell-based; details: Homo sapiens, inhibition of cancer cell proliferation
[4] = system: colorectal cancer (6 cell lines); assay: CellTiter-Glo Viability Assay, colorectal cancer; type: cell-based; details: Homo sapiens, inhibition of cancer cell proliferation
[5] = system: lung cancer (4 cell lines); assay: CellTiter-Glo Viability Assay, lung cancer; type: cell-based; details: Homo sapiens, inhibition of cancer cell proliferation
[6] = system: pancreatic cancer (8 cell lines); assay: CellTiter-Glo Viability Assay, pancreatic cancer; type: cell-based; details: Homo sapiens, inhibition of cancer cell proliferation
BT-549 = assay: CellTiter-Glo Viability Assay, breast cancer; type: cell-based; details: Homo sapiens, 96 h; BT-549, breast cancer, four days; read-out: EC50
CAMA1 = assay: CellTiter-Glo Viability Assay, breast cancer; type: cell-based; details: Homo sapiens, CAMA-1, 96 h; CAMA1, breast cancer, four days; read-out: EC50
MDA-MB-231-Luc = assay: CellTiter-Glo Viability Assay, breast cancer; type: cell-based; details: Homo sapiens, 96 h; MDA-MB-231-Luc, breast cancer, four days; read-out: EC50
T47D = assay: CellTiter-Glo Viability Assay, breast cancer; type: cell-based; details: Homo sapiens, 96 h, breast cancer, four days, read-out: EC50
HCC1599 = assay: CellTiter-Glo Viability Assay, breast cancer; type: cell-based; details: Homo sapiens, 96 h; HCC1599, breast cancer, four days; read-out: EC50
MCF7 = assay: CellTiter-Glo Viability Assay, breast cancer; type: cell-based; details: Homo sapiens, 96 h; MCF7, breast cancer, four days; read-out: EC50
ZR-75-1 = assay: CellTiter-Glo Viability Assay, breast cancer; type: cell-based; details: Homo sapiens, 96 h; ZR-75-1, breast cancer, four days; read-out: EC50
DU4475 = assay: CellTiter-Glo Viability Assay, breast cancer; type: cell-based; details: Homo sapiens, DU-4475, 96 h; DU4475, breast cancer, four days; read-out: EC50
CLK3 = CLK3 (Homo sapiens, UniProt P49761); assay: CLK3 kinase activity assay (Z-lyte, Ser/Thr 18 peptide)
Chain of CLK3 (P49761 whole entry): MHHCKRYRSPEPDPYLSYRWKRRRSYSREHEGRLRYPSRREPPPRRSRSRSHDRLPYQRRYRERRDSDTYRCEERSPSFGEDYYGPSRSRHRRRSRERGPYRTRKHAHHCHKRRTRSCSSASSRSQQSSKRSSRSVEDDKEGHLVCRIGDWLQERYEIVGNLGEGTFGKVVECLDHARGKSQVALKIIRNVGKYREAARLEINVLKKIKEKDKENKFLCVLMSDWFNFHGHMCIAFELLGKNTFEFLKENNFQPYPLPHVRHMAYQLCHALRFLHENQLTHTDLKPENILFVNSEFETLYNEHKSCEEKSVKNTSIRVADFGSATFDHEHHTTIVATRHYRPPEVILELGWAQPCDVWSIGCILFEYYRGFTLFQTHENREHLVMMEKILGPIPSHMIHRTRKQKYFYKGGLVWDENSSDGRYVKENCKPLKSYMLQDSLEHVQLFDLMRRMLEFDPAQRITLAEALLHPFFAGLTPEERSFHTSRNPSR

CLK2 = biological target: T1, CLK2 (Homo sapiens, UniProt P49760); assay: CLK2 kinase activity assay (Z-lyte, Ser/Thr 6 peptide); type: biochemical; details: recombinant CLK2 kinase, ATP 60 μM; read-out: EC50
T1 construct: purchased Thermo Fisher (Life Technologies), Z'-LYTE Kinase Assay Kits
T1 sequence (P49760 whole entry): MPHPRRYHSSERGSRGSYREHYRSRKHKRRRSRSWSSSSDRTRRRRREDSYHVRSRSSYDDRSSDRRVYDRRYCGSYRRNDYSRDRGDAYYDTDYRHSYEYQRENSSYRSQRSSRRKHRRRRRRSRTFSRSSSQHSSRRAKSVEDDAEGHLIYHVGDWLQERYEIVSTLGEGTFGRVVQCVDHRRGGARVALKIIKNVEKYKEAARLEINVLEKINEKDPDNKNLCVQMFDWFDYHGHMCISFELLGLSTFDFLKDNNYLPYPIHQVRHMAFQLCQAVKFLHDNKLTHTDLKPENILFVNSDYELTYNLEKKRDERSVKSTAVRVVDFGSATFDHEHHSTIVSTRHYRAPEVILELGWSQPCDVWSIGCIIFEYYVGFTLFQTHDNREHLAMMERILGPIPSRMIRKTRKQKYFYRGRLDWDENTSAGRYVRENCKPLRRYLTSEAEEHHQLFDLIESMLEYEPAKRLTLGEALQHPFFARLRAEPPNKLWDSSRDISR
Experimental: All reactions were performed in duplicate.

[7] = system: liver cancer (3 cell lines); assay: CellTiter-Glo Viability Assay, liver cancer; type: cell-based; details: Homo sapiens, inhibition of cancer cell proliferation
all 50 cell lines = assay: CellTiter-Glo Viability Assay, average across all cell lines; type: cell-based; details: Homo sapiens; across all 50 cell lines; read-out: average EC50 for inhibition of cancer cell proliferation
Summary of the method: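 Proliferation of a multi-tissue human cancer line panel is assessed over four days at 37° C and 5% CO2, seeding 300-3,000 cells/well. Viability is quantified by CellTiter-Glo luminescence, and EC50 values are calculated.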

[8] = DU-145, read-out: Prostate cancer EC50 Du-145
[9] = PC-3, PC3 cell line, inhibition of cancer cell proliferation, read-out: Prostate cancer EC50 PC3
[10] = 22Rv1 cell line, inhibition of cancer cell proliferation, read-out: Prostate cancer EC50 22Rv1
[11] = LNCap clone FGC cell line, inhibition of cancer cell proliferation, read-out: Prostate cancer EC50 LNCap clone FGC
[12] = VCaP (Sigma) cell line, inhibition of cancer cell proliferation, read-out: Prostate cancer EC50 VCaP (Sigma)
[13] = DND41, DND-41 cell line, read-out: Haematopoietic & Lymphoid tumors, EC50 (μM) DND-41
[14] = MV4-11, MV-4-11 cell line, read-out: Haematopoietic & Lymphoid tumors, EC50 (μM) MV-4-11
[15] = Rec1, REC-1 cell line, read-out: Haematopoietic & Lymphoid tumors, EC50 (μM) REC-1
[16] = SU-DHL-4, SUDHL4 cell line, read-out: Haematopoietic & Lymphoid tumors, EC50 (μM) SUDHL4
[17] = HL-60 cell line, read-out: Haematopoietic & Lymphoid tumors, EC50 (μM) HL-60
[18] = JM1 cell line, read-out: Haematopoietic & Lymphoid tumors, EC50 (μM) JM1
[19] = JURKAT, Clone E6-1 cell line, read-out: Haematopoietic & Lymphoid tumors, EC50 (μM) JURKAT, Clone E6-1
[20] = JeKo-1 cell line, read-out: Haematopoietic & Lymphoid tumors, EC50 (μM) JeKo-1
[21] = KASUMI-1 cell line, read-out: Haematopoietic & Lymphoid tumors, EC50 (μM) KASUMI-1
[22] = Loucy cell line, read-out: Haematopoietic & Lymphoid tumors, EC50 (μM) Loucy
[23] = MOLT-4 cell line, read-out: Haematopoietic & Lymphoid tumors, EC50 (μM) MOLT-4
[24] = TF-1 cell line, read-out: Haematopoietic & Lymphoid tumors, EC50 (μM) TF-1
[25] = TOLEDO cell line, read-out: Haematopoietic & Lymphoid tumors, EC50 (μM) TOLEDO
[26] = PA-1, PA1 cell line, read-out: Ovarian cancer, EC50 (μM) PA1
[27] = TOV112D, TOV-112D cell line, read-out: Ovarian cancer, EC50 (μM) TOV-112D
[28] = OV-90 cell line, read-out: Ovarian cancer, EC50 (μM) OV-90
[29] = OVCAR-3 cell line, read-out: Ovarian cancer, EC50 (μM) OVCAR-3
[30] = HCT-116, HCT116 cell line, read-out: Colorectal cancer, EC50 (μM) HCT116
[31] = HT-29, HT29 cell line, read-out: Colorectal cancer, EC50 (μM) HT29
[32] = SW-620, SW620 cell line, read-out: Colorectal cancer, EC50 (μM) SW620
[33] = DLD-1 cell line, read-out: Colorectal cancer, EC50 (μM) DLD-1
[34] = SW48 cell line, read-out: Colorectal cancer, EC50 (μM) SW48
[35] = SW480 cell line, read-out: Colorectal cancer, EC50 (μM) SW480
[36] = A-427, A427 cell line, read-out: Lung cancer, EC50 (μM) A427
[37] = HCC78, HCC-78 cell line, read-out: Lung cancer, EC50 (μM) HCC-78
[38] = NCI-H460 cell line, read-out: Lung cancer, EC50 (μM) NCI-H460
[39] = NCI-H522 cell line, read-out: Lung cancer, EC50 (μM) NCI-H522
[40] = BXPC-3, BxPC3 cell line, read-out: Pancreatic cancer, EC50 BxPC3
[41] = CAPAN-1, Capan1 cell line, read-out: Pancreatic cancer, EC50 Capan1
[42] = Capan-2, Capan2 cell line, read-out: Pancreatic cancer, EC50 Capan2
[43] = MIA PaCa-2 cell line, read-out: Pancreatic cancer, EC50 MIA PaCa-2
[44] = PANC 05.04 cell line, read-out: Pancreatic cancer, EC50 PANC 05.04
[45] = PANC-1 cell line, read-out: Pancreatic cancer, EC50 PANC-1
[46] = UPAFII cell line, read-out: Pancreatic cancer, EC50 UPAFII
[47] = SNU-398, SNU398 cell line, read-out: Liver cancer, EC50 SNU398
[48] = HEPG2 cell line, read-out: Liver cancer, EC50 HEPG2
[49] = PLC/PRF/5 cell line, read-out: Liver cancer, EC50 PLC/PRF/5

EC50 [1, 8]: 1160 nM
EC50 [1, 9]: 473 nM
EC50 [1, 10]: 563 nM
EC50 [1, 11]: 2820 nM
EC50 [1, 12]: 2460 nM
EC50 [2, 13]: 0.176 µM
EC50 [2, 14]: 0.046 µM
EC50 [2, 15]: 7.2 µM
EC50 [2, 16]: 0.477 µM
EC50 [2, 17]: 1.02 µM
EC50 [2, 18]: 0.222 µM
EC50 [2, 19]: 2.44 µM
EC50 [2, 20]: 0.088 µM
EC50 [2, 21]: 0.804 µM
EC50 [2, 22]: 0.15 µM
EC50 [2, 23]: 2.02 µM
EC50 [2, 24]: 4.7 µM
EC50 [2, 25]: 0.249 µM
EC50 [3, 26]: 2.29 µM
EC50 [3, 27]: 0.446 µM
EC50 [3, 28]: 1.6 µM
EC50 [3, 29]: 0.145 µM
EC50 [4, 30]: 0.749 µM
EC50 [4, 31]: 8.88 µM
EC50 [4, 32]: 0.385 µM
EC50 [4, 33]: 3.57 µM
EC50 [4, 34]: 0.861 µM
EC50 [4, 35]: 0.305 µM
EC50 [5, 36]: 0.23 µM
EC50 [5, 37]: 0.961 µM
EC50 [5, 38]: > 10 µM
EC50 [5, 39]: 0.327 µM
EC50 [6, 40]: 3540 nM
EC50 [6, 41]: 1810 nM
EC50 [6, 42]: 3000 nM
EC50 [6, 43]: 220 nM
EC50 [6, 44]: 2120 nM
EC50 [6, 45]: > 10000 nM
EC50 [6, 46]: 1290 nM
EC50 (BT-549): 761 nM
EC50 (CAMA1): 340 nM
EC50 (MDA-MB-231-Luc): 1500 nM
EC50 (T47D): 455 nM
EC50 (HCC1599): 209 nM
EC50 (MCF7): 6390 nM
EC50 (ZR-75-1): 1280 nM
EC50 (DU4475): 3130 nM
EC50 (CLK3): 27.5 nM
EC50 (CLK2): 9.7 nM
EC50 [7, 47]: 79 nM
EC50 [7, 48]: 2090 nM
EC50 [7, 49]: > 10000 nM
SMILES: CS(=O)(=O)NCc1cc(F)cc(-c2nccc3[nH]c(-c4n[nH]c5ccc(-c6cncc(NC(=O)C7CCC7)c6)cc45)cc23)c1 [Compound 53]
EC50 (all 50 cell lines): 2120 nM

EC50 [1, 8]: > 3500 nM
EC50 [1, 9]: 3360 nM
EC50 [1, 10]: > 3500 nM
EC50 [1, 11]: > 3500 nM
EC50 [1, 12]: > 3500 nM
EC50 [2, 13]: 0.776 µM
EC50 [2, 14]: 0.094 µM
EC50 [2, 15]: > 3.5 µM
EC50 [2, 16]: 0.983 µM
EC50 [2, 17]: > 3.5 µM
EC50 [2, 18]: 0.952 µM
EC50 [2, 19]: > 3.5 µM
EC50 [2, 20]: 0.357 µM
EC50 [2, 21]: 0.711 µM
EC50 [2, 22]: 1.36 µM
EC50 [2, 23]: > 3.5 µM
EC50 [2, 24]: > 3.5 µM
EC50 [2, 25]: 0.869 µM
EC50 [3, 26]: > 3.5 µM
EC50 [3, 27]: > 3.5 µM
EC50 [3, 28]: > 3.5 µM
EC50 [3, 29]: 0.766 µM
EC50 [4, 30]: > 3.5 µM
EC50 [4, 31]: > 3.5 µM
EC50 [4, 32]: 1.97 µM
EC50 [4, 33]: > 3.5 µM
EC50 [4, 34]: > 3.5 µM
EC50 [4, 35]: > 3.5 µM
EC50 [5, 36]: 3.1 µM
EC50 [5, 37]: > 3.5 µM
EC50 [5, 38]: > 3.5 µM
EC50 [5, 39]: 2.47 µM
EC50 [6, 40]: > 3500 nM
EC50 [6, 41]: > 3500 nM
EC50 [6, 42]: > 3500 nM
EC50 [6, 43]: 1690 nM
EC50 [6, 44]: > 3500 nM
EC50 [6, 45]: > 3500 nM
EC50 [6, 46]: > 3500 nM
EC50 (BT-549): 812 nM
EC50 (CAMA1): > 3500 nM
EC50 (MDA-MB-231-Luc): > 3500 nM
EC50 (T47D): > 3500 nM
EC50 (HCC1599): 860 nM
EC50 (MCF7): > 3500 nM
EC50 (ZR-75-1): > 3500 nM
EC50 (DU4475): 2800 nM
EC50 (CLK3): 28.1 nM
EC50 (CLK2): 1.9 nM
EC50 [7, 47]: 605 nM
EC50 [7, 48]: > 3500 nM
EC50 [7, 49]: > 3500 nM
SMILES: O=C1CCc2cccc(c2)-c2cncc3[nH]c(nc23)-c2n[nH]c3ccc(cc23)-c2cncc(c2)N1 [Compound 55]
EC50 (all 50 cell lines): 6890 nM
